- melting point: 87 to 88 °C
Structure (SMILES): Nc1nc2ccccc2n1-c1cc(NC2CCCNC2)ncn1 (stereo not shown) [Compound 3]
